Assay results published in US7977120B2, “Fluorescent sensors for cellular amines” (The Curators of the University of Missouri, priority 2005, dated 2011).
“Also recorded” adds a separate entry of the source.

How the values were obtained:
[1] = Fluorescence titration of quinolone sensors with lysine; assay type: binding; conditions: Table 3; for Ka, Lysine: 1:1 methanol-buffer
Description: (§1) The present invention further discloses that the Quinolone-Dimer Sensors III can also provide detection for diamine analytes. The certain exemplary dimer sensors IIIa-g have been probed spectroscopically by UV-vis and fluorescence titration experiments. […] Moreover, by variation of the linker portion of the sensor III, useful selectivities for different length diamino-analytes have been achieved.
(§2) First, the absorption spectra show trends similar to those observed with the coumarin sensors in which a large red shift in absorption maximum is observed upon addition of diamines to the sensors. […] As shown in FIG. 11(a), when sensor IIIg is titrated with diaminopropane, a 28 nm shift in absorbance is observed consistent with a shift from aldehyde to iminium ion forms. The red shift in absorption has been attributed to the hydrogen bond between the formed iminium ion and the carbonyl group of the chromophore. In fluorescence mode, by exciting the chromophore at 495 nm, a large increase in fluorescence was observed upon titration with the diamine (FIG. 11(b)). The fluorescence increase is fitted to a one-site binding isotherm which gave a binding constant of 6700 M^−1 with a maximum fluorescence increase at saturation (Isat/I0) of 6.6-fold.
(§3) Generally, the dimeric sensors were not as soluble as the monomeric derivatives, so binding studies were performed in 1:1 methanol:buffer (10 mM HEPES, pH=7.4). Water solubilizing groups, such as polyethylene groups, can be provided on the quinolone core in a straightforward synthetic manner. Binding constants and maximum fluorescence changes (Isat/I0) are provided in Table 4 for a few representative guests.

[2] = Fluorescence titration of quinolone sensors with butylamine; assay type: binding; conditions: Table 3; for Ka, Butylamine: 1:1 methanol-buffer, error ±20%, duplicate titrations; for Isat/I0, Butylamine: maximum change in fluorescence from theoretical fit
[3] = tested on: bovine adrenal chromaffin cells; experiment: Staining chromaffin cells with the simple monomer IIa (confocal microscopy); assay type: cell-based; conditions: for staining of cells seen by confocal microscopy: 0.5 μM, 15 minutes, 37 C, excitation 488 nm
Method: The present invention further provides that the Quinolone-Monomer Sensors II can sense catecholamines and map their movements in a live cell. The initial proof of concept has been carried out by staining chromaffin cells with the simple monomer IIa. Specifically, several sets of chromaffin cells (which contain norepinephrine) were freshly prepared on coverslips and various concentrations of IIa in media were added.
A stock solution of 50 mM in DMSO was diluted in cell culture media to yield a final concentration of 0.5 uM. Cells were incubated in this solution at 37 C for 15 minutes and then the cells were washed with cell culture media without dye and observed using a confocal microscope at room temperature. The excitation wavelength was 488 nm.
Several sets of chromaffin cells (which contain norepinephrine) were freshly prepared on coverslips and various concentrations of 112 in media were added. […] The nuclei are clearly visible as dark regions. […] Given that the sensor should bind equally well to all amines, it is likely that that the sensor is actively accumulating in the vesicles.

[4] = Fluorescence titration of quinolone sensors with ornithine; assay type: binding; conditions: Table 3; for Ka, Ornithine: 1:1 methanol-buffer
Description: (§4) The present invention further discloses that the Quinolone-Dimer Sensors III can also provide detection for diamine analytes. The certain exemplary dimer sensors IIIa-g have been probed spectroscopically by UV-vis and fluorescence titration experiments. […] Moreover, by variation of the linker portion of the sensor III, useful selectivities for different length diamino-analytes have been achieved. First, the absorption spectra show trends similar to those observed with the coumarin sensors in which a large red shift in absorption maximum is observed upon addition of diamines to the sensors. […] As shown in FIG. 11(a), when sensor IIIg is titrated with diaminopropane, a 28 nm shift in absorbance is observed consistent with a shift from aldehyde to iminium ion forms. The red shift in absorption has been attributed to the hydrogen bond between the formed iminium ion and the carbonyl group of the chromophore. In fluorescence mode, by exciting the chromophore at 495 nm, a large increase in fluorescence was observed upon titration with the diamine (FIG. 11(b)).

[5] = Fluorescence titration of quinolone sensors with diaminopentane; assay type: binding; conditions: Table 3; for Ka, Diaminopentane: 1:1 methanol-buffer
Description: as §4

[6] = UV-vis and fluorescence titration of quinolone sensors with diaminopropane; assay type: binding; conditions: Table 3; for Ka, Diaminopropane: 1:1 methanol-buffer, excitation 495 nm
Description: as §1, §2, §3

[7] = Fluorescence titration of quinolone sensors with diaminobutane; assay type: binding; conditions: Table 3; for Ka, Diaminobutane: 1:1 methanol-buffer
Description: as §4

[8] = Titration of Sensor Ia with various analytes (UV-vis and fluorescence); assay type: binding; conditions: for binding affinity for sensor Ia (in words): compared with catecholamines; for Isat/I0 (λex = 446 nm): fluorescence intensity at saturation from theoretical fit to binding isotherm; for Isat/I0 (λex = 484 nm) / Isat/I0 (λex = 495 nm): fluorescence intensity at saturation from theoretical fit; for Kn (association constant): fluorescence spectroscopy, λem = 505 nm, error ± 20%, triplicate titration; for Isat/I0 (λex = 484 nm) / Kn (association constant): λex = 484 nm
Method: One exemplary coumarin-based sensor, 2-(((5-(7-(diethylamino)-3-formyl-2-oxo-2H-chromen-4-yl)pentyl)(methyl)amino)methyl)phenylboronic acid, sensor Ia, has been examined spectrophotometrically by titration with dopamine under neutral aqueous conditions in which a reducing agent is included to suppress oxidation of the air-sensitive catechol group.
The titration conditions are 10 μM sensor Ia with 100 mM Na2S2O3, 50 mM HEPES, 20 mM NaCl, pH=7.0, and at 37° C. […] See also, Org. Lett. 2004, 6(21), 3727-3730, which is incorporated herein by reference.
Binding constants (Ka) are determined by fluorescence titrations.

[9] = Relative affinity of dimer sensors across amine guests; assay type: binding; conditions: comparison of guests, Tables 3 and 4
Description: The certain exemplary dimer sensors IIIa-g have been probed spectroscopically by UV-vis and fluorescence titration experiments.
Water solubilizing groups, such as polyethylene groups, can be provided on the quinolone core in a straightforward synthetic manner. Binding constants and maximum fluorescence changes (Isat/I0) are provided in Table 4 for a few representative guests.

Row | SMILES | Isat/I0, Lysine [1] | Ka, Lysine [1] [M⁻¹] | Ka, Butylamine [2] [M⁻¹] | Isat/I0, Butylamine [2] | Isat/I0 (λex = 446 nm) [8] | Isat/I0 (λex = 484 nm) [8] | Isat/I0 (λex = 495 nm) [8] | Kn (association constant) [8] [M⁻¹] | other results
1 | CCSc1c(C=O)c(=O)n(Cc2ccccc2)c2cc(N(C)C)ccc12 [Sensor IIa, 1-benzyl-7-(dimethylamino)-4-(ethylthio)-2-oxo-1,2-dihydroquinoline-3-carbaldehyde] | 41 | 129 | 76 | 32 | – | – | – | – | membrane / cell permeability [3]: membrane permeable; staining of cells seen by confocal microscopy [3]: selectively stained; also recorded: punctate staining; staining of cells seen by confocal microscopy ([3]; listed as 112): selectively stained; optimal sensor concentration ([3]; 15 minutes of equilibration time): 0.5 µM
2 | CN(C)c1ccc2c(Sc3ccccc3Sc3c(C=O)c(=O)n(Cc4ccccc4)c4cc(N(C)C)ccc34)c(C=O)c(=O)n(Cc3ccccc3)c2c1 [Sensor IIIe] | 10 | 800 | 30 | 10 | – | – | – | – | Isat/I0, Ornithine [4]: 7.3; Ka, Ornithine [4]: 680 M⁻¹; Isat/I0, Diaminopentane [5]: 4.3; Ka, Diaminopentane [5]: 350 M⁻¹; Isat/I0, Diaminopropane [6]: 8.5; Ka, Diaminopropane [6]: 350 M⁻¹; Isat/I0, Diaminobutane [7]: 10; Ka, Diaminobutane [7]: 160 M⁻¹
3 | N[C@@H](CCC(=O)O)C(=O)O [glutamate] | – | – | – | – | – | – | – | – | binding affinity for sensor Ia (in words) [8]: low affinity
4 | CN(C)c1ccc2c(SCCCSc3c(C=O)c(=O)n(Cc4ccccc4)c4cc(N(C)C)ccc34)c(C=O)c(=O)n(Cc3ccccc3)c2c1 [Sensor IIIf] | 24 | 1460 | 31 | 26 | – | – | – | – | Isat/I0, Ornithine [4]: 22; Ka, Ornithine [4]: 550 M⁻¹; Isat/I0, Diaminopentane [5]: 24; Ka, Diaminopentane [5]: 270 M⁻¹; Isat/I0, Diaminopropane [6]: 15; Ka, Diaminopropane [6]: 2100 M⁻¹; guest selectivity (in words) [9]: the preferred guest in both cases is lysine; Isat/I0, Diaminobutane [7]: 24; Ka, Diaminobutane [7]: 690 M⁻¹
5 | CN(C)c1ccc2c(Sc3cccc(Sc4c(C=O)c(=O)n(Cc5ccccc5)c5cc(N(C)C)ccc45)c3)c(C=O)c(=O)n(Cc3ccccc3)c2c1 [Sensor IIId, meta-Benzenedithiol Dimer] | 4.7 | 2100 | 72 | 8.8 | – | – | – | – | Isat/I0, Ornithine [4]: 13; Ka, Ornithine [4]: 3300 M⁻¹; Isat/I0, Diaminopentane [5]: 15; Ka, Diaminopentane [5]: 1200 M⁻¹; Isat/I0, Diaminopropane [6]: 16; Ka, Diaminopropane [6]: 3400 M⁻¹; guest selectivity (in words) [9]: preference for ornithine; Isat/I0, Diaminobutane [7]: 15; Ka, Diaminobutane [7]: 1600 M⁻¹
6 | NC(CCC(=O)O)C(=O)O (stereo not drawn) | – | – | – | – | 0.87 | 7.0 | 25 | 6.8 | –
7 | CNCC(O)c1ccc(O)c(O)c1 (stereo not drawn) [epinephrine] | – | – | – | – | 0.73 | 0.76 | 0.77 | 5000 | –
8 | NC1C(O)OC(CO)C(O)C1O (stereo not drawn) | – | – | – | – | 0.55 | 5.9 | 27 | 5.0 | –
9 | NCC(O)c1ccc(O)c(O)c1 (stereo not drawn) [norepinephrine] | – | – | – | – | 0.39 | 0.46 | – | 6500 | –
10 | NCCc1ccc(O)c(O)c1 [dopamine] | – | – | – | – | 0.50 | 0.60 | – | 3400 | –
11 | NCCCCC(N)C(=O)O (stereo not drawn) | – | – | – | – | 0.75 | 8.0 | 25 | 4.0 | –
12 | N[C@H]1C(O)O[C@H](CO)[C@@H](O)[C@@H]1O (stereo partly drawn) [glucosamine] | – | – | – | – | – | – | – | – | binding affinity for sensor Ia (in words) [8]: affinity similar to the simple amines
13 | NCCc1ccc(O)cc1 [Tyramine] | – | – | – | – | 0.41 | 8.0 | 52 | 250 | binding affinity for sensor Ia (in words) [8]: significantly reduced affinity
